Reference: paper PMC7722873 (Scientific Reports, 2020)
Like-named read-outs stand apart in the source and are kept apart here. No end group written: not given here.

Experiments:
VEEV TC-83 [1] = type: cell-based, Venezuelan equine encephalitis virus
VEEV TC-83 [2] = type: cell-based, Venezuelan equine encephalitis virus; remark: listed apart in the source
VEEV TC-83 [3] = type: cell-based, Venezuelan equine encephalitis virus; remark: listed apart in the source
VEEV TrD strain [4] = type: cell-based, Venezuelan equine encephalitis virus
VEEV TrD strain [5] = type: cell-based, Venezuelan equine encephalitis virus; remark: listed apart in the source
EEEV (GA97 strain) = type: cell-based, eastern equine encephalitis virus
RVFV (MP-12 strain) = type: cell-based, Rift Valley fever virus
VEEV TC-83 [6] = type: cell-based, Venezuelan equine encephalitis virus; remark: listed apart in the source
[7] = system: 84 human inflammatory cytokines and receptors; type: cell-based
[8] = system: 84 human inflammatory cytokines and receptors; type: cell-based; remark: listed apart in the source
[9] = system: IFNγ, IL1α, IL1β, IL2, IL4, IL6, IL10, IL12p70, TNFα; type: cell-based, human
[10] = system: IFNγ, IL1α, IL1β, IL2, IL4, IL6, IL10, IL12p70, TNFα; type: cell-based, human; remark: listed apart in the source
HMC3 cells = details: 24 h
VEEV TC-83 [11] = type: cell-based, Venezuelan equine encephalitis virus; remark: listed apart in the source
VEEV TC-83 [12] = type: cell-based, Venezuelan equine encephalitis virus; remark: listed apart in the source
[13] = system: VEEV TC-83 vaccine strain; details: cited from earlier work
[14] = system: wild-type Trinidad Donkey (TrD) strain of VEEV; details: cited from earlier work

## FAVVKFRFWVWWFRWR-NH2 [A2]
VEEV TC-83 [1]
  decrease in extracellular genomic TC-83 RNA copy numbers: more than 50%
  decrease in intracellular genomic TC-83 RNA copy numbers: more than 50%
VEEV TC-83 [2]
  decrease in TC-83 infectious titers: ~ 1,000 fold
VEEV TC-83 [3]
  genomic TC-83 RNA copy numbers (intracellular and extracellular): reduced
VEEV TrD strain [4]
  decrease of TrD titers: about 100 fold
VEEV TrD strain [5]
  TrD titer inhibition, cells treated at infection relative to pre-treated cells: tenfold
  decrease of TrD titers: about 100 fold
EEEV (GA97 strain)
  inhibition of replication of EEEV: higher than tenfold
  lower levels of EEEV replication, pre-treated cells: ~ 4.5 fold
RVFV (MP-12 strain)
  inhibition of replication of RVFV: less than tenfold
VEEV TC-83 [6]
  inhibition of VEEV attachment (amount of viral RNA entering cells): inhibited VEEV attachment to cells
[7]
  Fold Regulation, AIMP1: -2.17
  Fold Regulation, B2M: -2.51
  Fold Regulation, C5: -3.11
  Fold Regulation, CCL1: -2.21
  Fold Regulation, CCL3: -11.1
  Fold Regulation, CCL4: -12.54
  Fold Regulation, CCL7: -3.26
  Fold Regulation, CCL8: -6.18
  Fold Regulation, CCL13: -2.73
  Fold Regulation, CCL17: -2.71
  Fold Regulation, CCL20: -2.91
  Fold Regulation, CCL23: -2.03
  Fold Regulation, CCL24: -2.6
  Fold Regulation, CCL26: -2.44
  Fold Regulation, CCR1: -2.78
  Fold Regulation, CCR2: -7.36
  Fold Regulation, CCR3: -2.71
  Fold Regulation, CCR5: -3.23
  Fold Regulation, CCR6: -5.15
  Fold Regulation, CCR8: -2.77
  Fold Regulation, CD40LG: -8.44
  Fold Regulation, CSF1: -2.23
  Fold Regulation, CSF2: -7.67
  Fold Regulation, CSF3: -8.01
  Fold Regulation, CXCL1: -2.79
  Fold Regulation, CXCL2: -2.97
  Fold Regulation, CXCL3: -8.92
  Fold Regulation, CXCL5: -3.43
  Fold Regulation, CXCL6: -3.46
  Fold Regulation, CXCL8: -4.74
  Fold Regulation, CXCL9: -2.67
  Fold Regulation, CXCR1: -4.9
  Fold Regulation, CXCR2: -2.22
  Fold Regulation, FASLG: -2.27
  Fold Regulation, HPRT1: -2.53
  Fold Regulation, IFNA2: -4.07
  Fold Regulation, IL1A: -40.4
  Fold Regulation, IL1B: -4.37
  Fold Regulation, IL1R1: -2.63
  Fold Regulation, IL1RN: 2.19
  Fold Regulation, IL3: -2.76
  Fold Regulation, IL5: -5.46
  Fold Regulation, IL5RA: -4.55
  Fold Regulation, IL7: 9.88
  Fold Regulation, IL9: -3.51
  Fold Regulation, IL9R: -2.48
  Fold Regulation, IL10RA: -3.22
  Fold Regulation, IL10RB: -2.31
  Fold Regulation, IL13: -4.71
  Fold Regulation, IL15: -2.47
  Fold Regulation, IL16: -2.42
  Fold Regulation, IL17A: -10.02
  Fold Regulation, IL17F: -13.11
  Fold Regulation, IL21: -2.43
  Fold Regulation, IL27: -2.99
  Fold Regulation, LTA: -4.72
  Fold Regulation, LTB: -3.31
  Fold Regulation, NAMPT: -2.42
  Fold Regulation, OSM: -9.67
  Fold Regulation, RPLP0: -2.88
  Fold Regulation, SPP1: -2.4
  Fold Regulation, TNF: -9.95
  Fold Regulation, TNFRSF11B: -4.24
  Fold Regulation, TNFSF4: -2.68
  Fold Regulation, TNFSF10: -2.78
  Fold Regulation, TNFSF11: -4.37
  Fold Regulation, TNFSF13: -6.12
  Fold Regulation, TNFSF13B: -3.19
  genes down regulated (twofold): 67 genes
  genes out of 84 with greater than twofold change in regulation: 71 genes
  genes upregulated (greater than twofold): 4 genes
[8]
  Fold Regulation, CCL2: -2.07
  genes above/below a twofold regulation change: eight
[9]
  secretion of cytokines from TC-83 infected cells: inhibit secretion of cytokines
[10]
  production of cytokines, pro-inflammatory and anti-inflammatory, from uninfected cells: decreased the production of cytokines
HMC3 cells
  CC50: greater than 250 µg/mL

## FQAVKFRFWVWWFRWR-NH2 [A3]
VEEV TC-83 [1]
  decrease in extracellular genomic TC-83 RNA copy numbers: more than 50%
  decrease in intracellular genomic TC-83 RNA copy numbers: more than 50%
VEEV TC-83 [2]
  decrease in TC-83 infectious titers: ~ 100 fold
VEEV TC-83 [3]
  genomic TC-83 RNA copy numbers (intracellular and extracellular): reduced
VEEV TrD strain [4]
  decrease of TrD titers: about 100 fold
VEEV TrD strain [5]
  TrD inhibitory response, pre-treatment relative to no pre-treatment: tenfold
  decrease of TrD titers: about 100 fold
EEEV (GA97 strain)
  inhibition of replication of EEEV: higher than tenfold
  lower levels of EEEV replication, pre-treated cells: ~ 4.5 fold
RVFV (MP-12 strain)
  inhibition of replication of RVFV: less than tenfold
VEEV TC-83 [6]
  inhibition of VEEV attachment (amount of viral RNA entering cells): tenfold
[7]
  Fold Regulation, C5: -4.7
  Fold Regulation, CCL1: -3.46
  Fold Regulation, CCL3: -6.01
  Fold Regulation, CCL4: -10.37
  Fold Regulation, CCL5: -2.56
  Fold Regulation, CCL17: -2.48
  Fold Regulation, CCL20: -2.88
  Fold Regulation, CCL26: -2.76
  Fold Regulation, CCR1: -2.01
  Fold Regulation, CCR8: -2.56
  Fold Regulation, CD40LG: -13.61
  Fold Regulation, CSF1: -2.16
  Fold Regulation, CSF2: -6.65
  Fold Regulation, CSF3: -2.47
  Fold Regulation, CX3CL1: -40.25
  Fold Regulation, CXCL2: -2.14
  Fold Regulation, CXCL3: -7.92
  Fold Regulation, CXCL5: -2.3
  Fold Regulation, CXCL8: -3.42
  Fold Regulation, CXCL10: -2.5
  Fold Regulation, CXCL12: -2.21
  Fold Regulation, CXCL13: -2.43
  Fold Regulation, IL1A: -75.02
  Fold Regulation, IL1B: -3.92
  Fold Regulation, IL1R1: -2.45
  Fold Regulation, IL5: -4.29
  Fold Regulation, IL5RA: -6.83
  Fold Regulation, IL10RA: -2.36
  Fold Regulation, IL10RB: -3.04
  Fold Regulation, IL15: -2.18
  Fold Regulation, IL16: -2.19
  Fold Regulation, IL17F: -17.44
  Fold Regulation, IL27: -3.21
  Fold Regulation, LTB: -2.77
  Fold Regulation, OSM: -11.73
  Fold Regulation, RPLP0: -2.15
  Fold Regulation, TNF: -30.83
  Fold Regulation, TNFRSF11B: -3.73
  Fold Regulation, TNFSF10: -3.34
  Fold Regulation, TNFSF13B: -4.76
  genes down regulated (twofold): 60 genes
[8]
  Fold Regulation, CCL13: 2.44
  Fold Regulation, CCL16: 3.4
  Fold Regulation, CCL22: 3.4
  Fold Regulation, CX3CR1: 2.38
  Fold Regulation, CXCL9: 3.12
  Fold Regulation, FASLG: 2.15
  Fold Regulation, IL9R: 2.56
  Fold Regulation, IL33: 3.21
  genes above/below a twofold regulation change: 30 genes
  genes down-regulated (twofold): 2 genes
  genes upregulated (twofold): 28 genes
[9]
  secretion of cytokines from TC-83 infected cells: inhibit secretion of cytokines
[10]
  production of cytokines, pro-inflammatory and anti-inflammatory, from uninfected cells: decreased the production of cytokines
HMC3 cells
  CC50: greater than 250 µg/mL

## FQVVKFRFWVWWFRWR [G8]
VEEV TC-83 [11]
  VEEV TC-83 titer inhibition: comparable to a known inhibitor, bortezomib

## ILPWKWPWWPWRR-NH2 [Indolicidin, indolicidin]
VEEV TC-83 [12]
  antiviral activity against VEEV: no antiviral activity

## LL-37 (LLGDFFRKSKEKIGKEFKRIVQRIKDFLRNLVPRTES; Antibacterial peptide LL-37; UniProt P49913 134-170, looked up)
[13]
  inhibition of viral titers: approximately 100 fold
[14]
  inhibition of viral titers: ~1,000 fold
